Experiment [1] relates to lectin MFA. Kind of experiment: Hemagglutination-inhibition assay of the lectin MFA with monosaccharide, disaccharide and glycoprotein. Format: biochemical, Maackia fauriei. On the set-up: key to Minimum erythrocyte agglutination inhibition concentration: —: The negative sign (−) means that there is no hemagglutination-inhibition. To be noted: for Minimum erythrocyte agglutination inhibition concentration: 6.25% mouse erythrocyte, lectin MFA diluted 128-fold; for inhibition of agglutination: starting from 1 mg/ml solution of each carbohydrate, 128-fold diluted lectin MFA. As to the method: In order to confirm that the lectin MFA of the present invention recognizes N-acetylneuraminic acid, hemagglutination-inhibition reaction was performed using monosaccharide, disaccharide and glycoprotein. 50 μl of a 128-fold diluted solution of lectin MFA in 0.15 M NaCl and 50 μl of each 1 mg/ml solution of monosaccharides (e.g., β-D-glucose, D-galactose, L-fucose, D-mannose, N-acetylneuraminic acid, N-glycolylneuraminic acid, N-acetyl-D-glucosamine, N-acetyl-D-galactosamine and methyl-α-D-glucopyranoside), disaccharide (e.g., α-lactose, β-lactose, D-lactose, β-gentiobiose, maltose, D-raffinose or D-cellobiose) and glycoprotein (e.g., fetuin and asialofetuin) in 0.15 M NaCl were added to the each well of a 96-well microplate. After the reaction for one hour or more at room temperature, 50 μl of the erythrocyte suspended in 0.15 M NaCl was added to each well and reacted for one hour at room temperature.
The negative sign (−) means that there is no hemagglutination-inhibition. […] NeuGc and NeuAc represent N-glycolylneuraminic acid and N-acetylneuraminic acid, respectively.

Experiment [2] deals with lectin MFA. Described as above. Format: biochemical, Maackia fauriei. To be noted: at 10 mM.
In the next experiment the test system is fetuin. Kind of experiment: Comparison of binding specificity of lectins, hemagglutination inhibition by fetuin. To be noted: 6.25% human B type erythrocyte. Format: biochemical. As to the method:
(§1) The binding specificity of the MFA with Wheat germ agglutinin, Maackia amurensis aggulutinin, Limulus polyphemus lectin, and Sambucus niger agglutinin which have already been reported to recognize N-acetylneuraminic acid was determined by a hemagglutination inhibition response using 10 mM of N-acetylneuraminic acid and N-acetylneuraminic acid-binding fetuin.
(§2) The negative sign (−) means no hemagglutination inhibition up to 10 mM

Experiment [3] can be described thus: Comparison of binding specificity of lectins, hemagglutination inhibition by N-acetylneuraminic acid. Format: biochemical. To be noted: 6.25% human B type erythrocyte; tested up to 10 mM. How it is done:
as §1, §2

For the molecule `OC[C@H]1O[C@@H](O[C@H]2[C@H](O)[C@@H](O)[C@H](O)O[C@@H]2CO)[C@H](O)[C@@H](O)[C@@H]1O` [D-cellobiose], in the experiment on lectin MFA [1] (dash = no inhibition), the “Minimum erythrocyte agglutination inhibition concentration” value is listed as “—”.
Turning to `O=C[C@H](O)[C@@H](O)[C@@H](O)[C@H](O)CO` [D-galactose], in the experiment on lectin MFA [1] (dash = no inhibition), the “Minimum erythrocyte agglutination inhibition concentration” value is “—”.
For the molecule `OC[C@H]1O[C@@H](O[C@H]2[C@H](O)[C@@H](O)C(O)O[C@@H]2CO)[C@H](O)[C@@H](O)[C@H]1O` (stereo partly drawn) [D-lactose], the “Minimum erythrocyte agglutination inhibition concentration” value in the experiment with lectin MFA [1] (dash = no inhibition) was “—”.
Turning to `O=C[C@@H](O)[C@@H](O)[C@H](O)[C@H](O)CO` [D-mannose], the “Minimum erythrocyte agglutination inhibition concentration” value in the experiment with lectin MFA [1] (dash = no inhibition) is recorded as “—”.
With `OC[C@H]1O[C@H](OC[C@H]2O[C@H](O[C@]3(CO)O[C@H](CO)[C@@H](O)[C@@H]3O)[C@H](O)[C@@H](O)[C@@H]2O)[C@H](O)[C@@H](O)[C@H]1O` [D-raffinose], in the experiment on lectin MFA [1] (dash = no inhibition), the “Minimum erythrocyte agglutination inhibition concentration” value was “—”.
On the same count and under the same terms, under `C[C@H](O)[C@@H](O)[C@@H](O)[C@H](O)C=O` [L-fucose] stands “—”.
As to `OC[C@H]1O[C@H](O[C@H]2[C@H](O)[C@@H](O)[C@H](O)O[C@@H]2CO)[C@H](O)[C@@H](O)[C@@H]1O` [Maltose], the “Minimum erythrocyte agglutination inhibition concentration” value in the experiment on lectin MFA [1] (dash = no inhibition) is “—”.
Same read-out and setting: under `CO[C@H]1O[C@H](CO)[C@@H](O)[C@H](O)[C@H]1O` [Methyl-α-D-glucopyranoside] stands “—”; under `CC(=O)N[C@H]1C(O)O[C@H](CO)[C@H](O)[C@@H]1O` (stereo partly drawn) [N-acetyl-D-galactosamine], “—”; under `CC(=O)N[C@H]1C(O)O[C@H](CO)[C@@H](O)[C@@H]1O` (stereo partly drawn) [N-acetyl-D-glucosamine], “—”.
Take `CC(=O)N[C@H]1C(O)O[C@H](CO)[C@@H](O[C@@H]2O[C@H](CO)[C@H](O)[C@H](O)[C@H]2O)[C@@H]1O` (some centres unmarked) [N-acetylactosamine]: the hemagglutination inhibition result with lectin MFA [2] was “did not show hemagglutination inhibition”.
As to `CC(=O)N[C@H]1[C@H]([C@H](O)[C@H](O)CO)OC(O)(C(=O)O)C[C@@H]1O` (some centres unmarked) [N-acetylneuraminic acid], in the experiment on lectin MFA [1], the “Minimum erythrocyte agglutination inhibition concentration” value is recorded as 10.0 mM and the inhibition of agglutination entry was “inhibited the agglutination”.
As for `O=C(CO)N[C@H]1[C@H]([C@H](O)[C@H](O)CO)OC(O)(C(=O)O)C[C@@H]1O` (some centres unmarked) [N-glycolylneuraminic acid], the “Minimum erythrocyte agglutination inhibition concentration” value with lectin MFA [1] (dash = no inhibition) was “—”.
On the same count and under the same terms, under `OC[C@H]1O[C@@H](O[C@H]2[C@H](O)[C@@H](O)[C@@H](O)O[C@@H]2CO)[C@H](O)[C@@H](O)[C@H]1O` [α-lactose] stands “—”.
As to `OC[C@H]1O[C@@H](O)[C@H](O)[C@@H](O)[C@@H]1O` [β-D-glucose], the “Minimum erythrocyte agglutination inhibition concentration” value in the experiment with lectin MFA [1] (dash = no inhibition) is listed as “—”.
As to `OC[C@H]1O[C@@H](OC[C@H]2O[C@@H](O)[C@H](O)[C@@H](O)[C@@H]2O)[C@H](O)[C@@H](O)[C@@H]1O` [β-gentiobiose], in the experiment on lectin MFA [1] (dash = no inhibition), the “Minimum erythrocyte agglutination inhibition concentration” value is “—”.
The same measure, in the same setting: under `OC[C@H]1O[C@@H](O[C@H]2[C@H](O)[C@@H](O)[C@H](O)O[C@@H]2CO)[C@H](O)[C@@H](O)[C@H]1O` [β-lactose] stands “—”.
For the molecule Wheat germ agglutinin, the “Minimum hemagglutination-inhibition concentration, Fetuin” value in the experiment with fetuin was determined as 207 µM. Besides, the “Minimum hemagglutination-inhibition concentration, N-acetylneuraminic acid” value in experiment [3] was “— (The negative sign (−) means no hemagglutination inhibition up to 10 mM)”.

B1: Fetuin: glycoprotein containing N-acetylneuraminic acid (protein, UniProt P12763 19-359, looked up)
Alpha-2-HS-glycoprotein: IPLDPVAGYKEPACDDPDTEQAALAAVDYINKHLPRGYKHTLNQIDSVKVWPRRPTGEVYDIEIDTLETTCHVLDPTPLANCSVRQQTQHAVEGDCDIHVLKQDGQFSVLFTKCDSSPDSAEDVRKLCPDCPLLAPLNDSRVVHAVEVALATFNAESNGSYLQLVEISRAQFVPLPVSVSVEFAVAATDCIAKEVVDPTKCNLLAEKQYGFCKGSVIQKALGGEDVRVTCTLFQTQPVIPQPQPDGAEAEAPSAVPDAAGPTPSAAGPPVASVVVGPSVVAVPLPLHRAHYDLRHTFSGVASVESSSGEAFHVGKTPIVGQPSIPGGPVRLCPGRIRYFKI
Consider B1, for which, in the experiment with lectin MFA [1], the “Minimum erythrocyte agglutination inhibition concentration” value was found to be 0.0052 mM and the inhibition of agglutination result is “inhibited the agglutination”.

B2: Asialofetuin: glycoprotein tested as hemagglutination inhibitor (protein, UniProt P12763 19-359, looked up)
Alpha-2-HS-glycoprotein: B1 Alpha-2-HS-glycoprotein
modifications: desialylated
On to B2, for which, in the experiment on lectin MFA [1] (dash = no inhibition), the “Minimum erythrocyte agglutination inhibition concentration” value is reported as “—”.
